The target in one data set is T1, CYP1A2 (Homo sapiens, UniProt P05177).
T1 sequence (P05177 1-516): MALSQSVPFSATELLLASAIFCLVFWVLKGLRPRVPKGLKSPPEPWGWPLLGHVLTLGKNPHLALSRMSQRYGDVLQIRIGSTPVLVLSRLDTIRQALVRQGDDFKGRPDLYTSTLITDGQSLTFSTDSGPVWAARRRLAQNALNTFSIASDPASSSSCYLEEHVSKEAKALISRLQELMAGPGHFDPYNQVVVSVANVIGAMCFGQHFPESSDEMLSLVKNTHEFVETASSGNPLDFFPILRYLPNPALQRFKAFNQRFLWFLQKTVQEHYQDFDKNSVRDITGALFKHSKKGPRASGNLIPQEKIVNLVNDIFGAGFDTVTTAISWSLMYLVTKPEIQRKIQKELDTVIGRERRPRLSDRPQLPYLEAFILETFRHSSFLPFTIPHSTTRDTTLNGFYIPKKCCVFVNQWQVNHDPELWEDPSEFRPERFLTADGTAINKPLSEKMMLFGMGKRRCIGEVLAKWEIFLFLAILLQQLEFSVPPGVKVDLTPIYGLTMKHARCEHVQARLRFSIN
The data set is described as follows: Study 004: DDI of EDP‐305. The data set is classed as in vivo. The note with it: for Cmax: human, plasma, oral, Geo LSMean.

The next data set deals with OATP1B1/B3 and BCRP. The data set is described as follows: Study 004: DDI of EDP‐305. Type of data set: in vivo, human.
Data set [1] concerns the target T2, CYP3A4 (Homo sapiens, UniProt P08684). The data set is described as follows: Study 008: effect of EDP‐305 on combined oral contraceptive. Type of data set: in vivo. The note with it: for AUC0,t, Geo LSMean ratio (90% CI) / Cmax, Geo LSMean ratio (90% CI): OC + EDP‐305 vs OC alone; for AUC(0-t) / Cmax: human, plasma, oral, Geo LSMean, day 21; for AUC(0-t): AUC0,t; for Peak and systemic exposures (Cmax and AUC0‐τ), OC + EDP‐305 vs OC alone: in words.

In data set [2] the target is T2, CYP3A4. The data set is described as follows: Study 004: DDI of EDP‐305. The data set is classed as in vivo. The following applies: for Cmax: human, plasma, oral, Geo LSMean.
The mark [3] stands for this setting: caffeine + EDP‐305 vs caffeine alone.
Setting [4] is: OC + EDP‐305 2.5 mg tablet (test).
Where [5] appears, read: midazolam 2 mg + EDP‐305 10 mg (test).
Setting [6] is: midazolam + EDP‐305 vs midazolam alone.
Where [7] appears, read: rosuvastatin + EDP‐305 vs rosuvastatin alone.

T2 sequence (P08684 whole entry): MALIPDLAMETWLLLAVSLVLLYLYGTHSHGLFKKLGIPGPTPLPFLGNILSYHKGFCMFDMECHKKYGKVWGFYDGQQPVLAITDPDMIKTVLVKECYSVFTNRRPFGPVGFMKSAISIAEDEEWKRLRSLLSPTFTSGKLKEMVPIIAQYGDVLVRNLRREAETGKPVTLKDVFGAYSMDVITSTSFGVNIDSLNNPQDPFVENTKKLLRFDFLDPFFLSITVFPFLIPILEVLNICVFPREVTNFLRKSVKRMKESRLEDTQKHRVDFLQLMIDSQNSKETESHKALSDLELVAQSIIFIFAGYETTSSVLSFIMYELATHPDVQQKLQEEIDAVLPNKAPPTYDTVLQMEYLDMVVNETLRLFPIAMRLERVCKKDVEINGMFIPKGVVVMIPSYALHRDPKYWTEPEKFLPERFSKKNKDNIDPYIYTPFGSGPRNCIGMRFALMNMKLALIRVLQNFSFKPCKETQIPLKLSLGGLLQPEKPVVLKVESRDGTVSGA

Turning to `Cn1c(=O)c2c(ncn2C)n(C)c1=O` [caffeine], at CYP1A2 (setting [3]), the “delayed Tmax (increase)” value came out at 50%, the “effect on Vd/F” value is “little effect”, the “increase in AUC0‐t” value came out at 1.90 fold and the “longer t1/2 (increase)” value was determined as 64%. The “lower CL/F (decrease)” value at CYP1A2 (setting [3]) amounted to 45%. Moreover, the Cmax at CYP1A2 (200 mg, caffeine 200 mg alone (reference)) was 4190 ng/mL. In addition, the Cmax at CYP1A2 (caffeine 200 mg + EDP‐305 10 mg (test)) was 4720 ng/mL.
Take `CC(C)c1nc(NS(C)(=O)=O)nc(-c2ccc(F)cc2)c1/C=C/[C@@H](O)C[C@@H](O)CC(=O)O` [N‐desmethyl‐rosuvastatin]: the “GM AUCR0‐inf, metabolite‐to‐parent ratio” value stood at 16.6% in the data set with OATP1B1/B3 and BCRP (rosuvastatin administered alone); 11.2% with OATP1B1/B3 and BCRP (rosuvastatin administered with EDP‐305).
Take `C#C[C@]1(O)CC[C@H]2[C@@H]3CCc4cc(O)ccc4[C@H]3CC[C@@]21C` [ethinyl estradiol]: at CYP3A4 [1], the “AUC0,t, Geo LSMean ratio (90% CI)” value was 1.08 (1.00, 1.16); the “Cmax, Geo LSMean ratio (90% CI)” value is recorded as 1.08 (0.99, 1.19); the “Peak and systemic exposures (Cmax and AUC0‐τ), OC + EDP‐305 vs OC alone” value was “similar”. At CYP3A4 [1] (OC alone (reference)), the AUC(0-t) worked out at 1.25 ng·h/mL and the Cmax is 0.137 ng/mL. Also, the Cmax at CYP3A4 [1] (setting [4]) was 0.148 ng/mL.
As to `C#C[C@]1(O)CC[C@H]2[C@@H]3CCC4=CC(=NO)CC[C@@H]4[C@H]3CC[C@@]21CC` (mixture of isomers) [norelgestromin], at CYP3A4 [1], the “AUC0,t, Geo LSMean ratio (90% CI)” value is listed as 0.99 (0.92, 1.05); the “Cmax, Geo LSMean ratio (90% CI)” value is recorded as 0.94 (0.86, 1.02); the “Peak and systemic exposures (Cmax and AUC0‐τ), OC + EDP‐305 vs OC alone” value is reported as “similar”. Moreover, at CYP3A4 [1] (OC alone (reference)), the AUC(0-t) was 25.9 ng·h/mL and the Cmax came to 2.64 ng/mL. For the same molecule, the Cmax on CYP3A4 [1] (setting [4]) came out at 2.47 ng/mL.
At CYP3A4 [2] (2 mg, midazolam 2 mg alone (reference)), `Cc1ncc2n1-c1ccc(Cl)cc1C(c1ccccc1F)=NC2` [midazolam] registered a Cmax of 7.51 ng/mL. Besides, on CYP3A4 [2] (setting [5]), the Cmax is 9.41 ng/mL and the “AUC0,inf, Geo LSMean” value was 32.22 ng·h/mL. Also, on CYP3A4 [2] (setting [6]), the “delayed Tmax (increase)” value was 98%, the “increase in AUC0‐t” value worked out at 1.53 fold, the “longer t1/2 (increase)” value was found to be 34% and the “lower CL/F (decrease)” value is recorded as 36%. Moreover, the “lower Vd/F (decrease)” value at CYP3A4 [2] (setting [6]) was determined as 14%.
As for `C#C[C@]1(O)CC[C@H]2[C@@H]3CCC4=CC(=O)CC[C@@H]4[C@H]3CC[C@@]21CC` [levonorgestrel], on CYP3A4 [1], the “AUC0,t, Geo LSMean ratio (90% CI)” value is listed as 1.31 (1.23, 1.39) and the “Cmax, Geo LSMean ratio (90% CI)” value is reported as 1.29 (1.21, 1.38). In addition, at CYP3A4 [1] (OC alone (reference)), the AUC(0-t) was 57.2 ng·h/mL and the Cmax turned out to be 2.99 ng/mL. Further, the Cmax at CYP3A4 [1] (setting [4]) amounted to 3.85 ng/mL.
`CC(C)c1nc(N(C)S(C)(=O)=O)nc(-c2ccc(F)cc2)c1/C=C/[C@@H](O)C[C@@H](O)CC(=O)O` [rosuvastatin]: the Cmax in the data set on OATP1B1/B3 and BCRP (human, plasma, oral, Cmax, Geo LSMean, rosuvastatin 20 mg + EDP‐305 10 mg (test)) is 5.59 ng/mL. Also, in the data set on OATP1B1/B3 and BCRP (setting [7]), the “effect on Tmax” value is listed as “no apparent effect”, the “increase in AUC0‐t” value is listed as 1.24 fold, the “longer t1/2 (increase)” value is 17% and the “lower CL/F (decrease)” value came to 20%.
For `OCc1ncc2n1-c1ccc(Cl)cc1C(c1ccccc1F)=NC2` [1′‐hydroxymidazolam], the “GM AUCR0‐inf, metabolite‐to‐parent ratio” value was determined as 39.1% on CYP3A4 [2] (midazolam administered alone) and 20.6% at CYP3A4 [2] (midazolam administered with EDP‐305).

The values above are taken from publication PMC9468552 (Clinical and Translational Science, 2022).
